Assay results as given in article PMC6934184, “Selective DNA-PKcs inhibition extends the therapeutic index of localized radiotherapy and chemotherapy” (The Journal of Clinical Investigation, 2019).

Target: T1, RPS6KA4 (MSK2) (Homo sapiens, UniProt O75676)
T1 construct: purchased Thermo Fisher Scientific (Life Technologies) SelectScreen
Test: SelectScreen Z'LYTE
Assay type: biochemical
Procedure, shortened: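 Percent values come from Thermo SelectScreen profiling of NU5455, combining activity and binding assays. CSF1R was run in Z'LYTE format at Km app ATP, and CAMK1 in Adapta format with ATP listed at 10.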

T1 sequence (O75676 whole entry): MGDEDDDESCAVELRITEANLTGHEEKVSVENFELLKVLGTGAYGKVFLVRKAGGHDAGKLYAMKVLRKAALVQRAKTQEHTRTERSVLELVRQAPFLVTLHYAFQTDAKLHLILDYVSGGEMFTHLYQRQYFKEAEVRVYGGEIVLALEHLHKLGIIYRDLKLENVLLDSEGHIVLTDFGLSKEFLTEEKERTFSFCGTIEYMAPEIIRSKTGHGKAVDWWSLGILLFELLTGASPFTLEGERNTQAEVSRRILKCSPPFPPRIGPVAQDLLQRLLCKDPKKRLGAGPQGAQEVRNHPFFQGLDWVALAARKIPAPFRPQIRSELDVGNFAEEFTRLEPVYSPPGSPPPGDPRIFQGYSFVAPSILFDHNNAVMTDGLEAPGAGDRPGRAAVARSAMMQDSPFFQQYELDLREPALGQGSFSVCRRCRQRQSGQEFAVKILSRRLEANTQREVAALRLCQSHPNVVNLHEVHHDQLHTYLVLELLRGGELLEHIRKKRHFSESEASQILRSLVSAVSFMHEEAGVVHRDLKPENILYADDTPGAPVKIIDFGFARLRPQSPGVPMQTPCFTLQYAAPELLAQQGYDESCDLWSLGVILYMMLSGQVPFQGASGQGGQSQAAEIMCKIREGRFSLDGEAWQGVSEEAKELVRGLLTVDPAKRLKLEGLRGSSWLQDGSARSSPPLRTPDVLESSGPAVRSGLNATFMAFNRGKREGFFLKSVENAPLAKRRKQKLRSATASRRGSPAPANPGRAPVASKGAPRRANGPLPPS

SMILES: CN(C(=O)CN1CCOCC1)c1ccc2sc3c(-c4cccc5c(=O)cc(N6CC7CCC(C6)O7)oc45)cccc3c2c1 [NU5455]
- inhibition at 1 µM: 4.2%
